# Assay: Stability of pure lycopene isomers in n-hexane during storage at room temperature
# Format: physicochemical
# Conditions: storage in n-hexane at room temperature in the absence of light
# Procedure: Pure 5-Z, 9-Z, 13-Z and all-E lycopene were isolated from isomerised tomato oleoresin (submitted to 1 hour heating), by collecting the fractions containing the corresponding peaks after HPLC separation (see below the experimental conditions). Peaks were collected during two consecutive HPLC runs and the corresponding fractions were pooled.
# Lycopene isomer profiles were determined by normal phase HPLC according to the method described by Schierle et al. (Schierle, J., Bretzel, W., Buhler, I., Faccin, N., Hess, D., Steiner, K., Schuep, W. (1997). Food. Chem. 59: 459). Samples of isomerized oleoresins were dissolved in n-hexane containing 50 ppm BHT and spun at maximum speed in an Eppendorf Lab centrifuge. The resulting supernatants were immediately analyzed by HPLC. The HPLC system used was a 1100 series Hewlett-Packard model equipped with an ultraviolet-visible photodiode array detector. Data were simultaneously acquired at 470 nm, 464 nm, 346 nm and 294 nm. […]
# Amounts of lycopene isomers were calculated based on surface areas of the HPLC peaks using the same extinction coefficient as the all-E lycopene. […]
# Stability of lycopene isomers was investigated both in n-hexane and in a tomato oleoresin isomerized by 4 hour heating in ethyl acetate. […] Total lycopene concentration and lycopene isomer profiles were measured at various time intervals during the storage. […]
structure (smiles),measurement,value
CC(C)=CCC/C(C)=C/C=C/C(C)=C/C=C/C(C)=C\C=C\C=C(C)\C=C\C=C(C)\C=C\C=C(/C)CCC=C(C)C [13-Z lycopene],relative stability of the isomer,less stable isomer

# From US8568806B2, “Stable and bioavailable compositions of isomers of lycopene for skin and hair” (Indena, S.p.A., priority 2006, dated 2013)
